Experimental data: publication PMC7026418, “The kinase polypharmacology landscape of clinical PARP inhibitors” (Scientific Reports, 2020)
Read-outs that look alike come from different tables or passages of the source.

Legend:
Test in all cases: biochemical
Parameters in all cases: DiscoveRx KINOMEscan active site-directed competition binding; percent of control kinase bound to immobilised ligand
ACVRL1 = ACVRL1 (Homo sapiens, UniProt P37023)
FGFR3 = FGFR3 (Homo sapiens, UniProt P22607)
KIT(V559D,T670I) = KIT(V559D,T670I) (Homo sapiens, UniProt P10721, T670I/V559D)
Chain of KIT(V559D,T670I) (P10721 whole entry V559D/T670I): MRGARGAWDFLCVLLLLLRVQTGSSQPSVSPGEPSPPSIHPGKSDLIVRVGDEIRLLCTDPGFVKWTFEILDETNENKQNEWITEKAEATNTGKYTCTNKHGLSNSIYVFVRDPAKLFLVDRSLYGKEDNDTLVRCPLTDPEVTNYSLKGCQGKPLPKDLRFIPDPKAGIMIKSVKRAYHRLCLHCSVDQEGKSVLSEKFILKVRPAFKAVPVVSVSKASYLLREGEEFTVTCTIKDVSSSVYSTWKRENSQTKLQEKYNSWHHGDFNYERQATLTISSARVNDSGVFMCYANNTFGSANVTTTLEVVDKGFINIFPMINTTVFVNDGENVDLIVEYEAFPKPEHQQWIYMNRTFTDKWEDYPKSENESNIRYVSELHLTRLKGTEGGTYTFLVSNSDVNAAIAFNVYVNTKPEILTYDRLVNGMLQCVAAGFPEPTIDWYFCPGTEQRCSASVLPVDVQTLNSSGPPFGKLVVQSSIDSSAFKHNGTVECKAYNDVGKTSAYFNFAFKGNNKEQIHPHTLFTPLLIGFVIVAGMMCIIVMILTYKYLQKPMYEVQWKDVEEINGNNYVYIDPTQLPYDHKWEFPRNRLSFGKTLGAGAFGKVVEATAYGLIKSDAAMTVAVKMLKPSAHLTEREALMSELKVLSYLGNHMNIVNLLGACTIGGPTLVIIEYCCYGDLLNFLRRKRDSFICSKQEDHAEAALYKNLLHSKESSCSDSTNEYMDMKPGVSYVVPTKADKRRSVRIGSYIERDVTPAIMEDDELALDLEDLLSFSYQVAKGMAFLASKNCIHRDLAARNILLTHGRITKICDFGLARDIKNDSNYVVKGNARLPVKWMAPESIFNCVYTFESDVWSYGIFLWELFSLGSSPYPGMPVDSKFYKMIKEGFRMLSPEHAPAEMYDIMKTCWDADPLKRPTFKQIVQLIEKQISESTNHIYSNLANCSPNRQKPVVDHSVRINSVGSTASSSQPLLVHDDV

WEE2 = WEE2 (Homo sapiens, UniProt P0C1S8)
Chain of WEE2 (P0C1S8 whole entry): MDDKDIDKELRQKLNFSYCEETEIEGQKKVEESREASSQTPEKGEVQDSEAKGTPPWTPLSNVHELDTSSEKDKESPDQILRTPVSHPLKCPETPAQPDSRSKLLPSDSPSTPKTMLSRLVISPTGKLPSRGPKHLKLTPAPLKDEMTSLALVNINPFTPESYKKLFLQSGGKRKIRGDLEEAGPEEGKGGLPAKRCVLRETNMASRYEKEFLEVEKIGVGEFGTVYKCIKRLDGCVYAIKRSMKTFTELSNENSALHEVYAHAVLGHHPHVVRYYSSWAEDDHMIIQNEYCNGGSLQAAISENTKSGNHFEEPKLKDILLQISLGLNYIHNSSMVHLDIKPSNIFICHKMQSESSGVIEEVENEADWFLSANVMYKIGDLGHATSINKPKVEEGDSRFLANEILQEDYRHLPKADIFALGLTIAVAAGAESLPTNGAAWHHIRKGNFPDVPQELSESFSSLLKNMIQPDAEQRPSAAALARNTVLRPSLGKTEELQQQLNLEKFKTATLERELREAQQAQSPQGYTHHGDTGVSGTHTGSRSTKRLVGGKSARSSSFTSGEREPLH

SgK110 = target: T1, SgK110 (Homo sapiens, UniProt P0C264)
T1 construct: gene SBK3
T1 sequence (P0C264 1-359): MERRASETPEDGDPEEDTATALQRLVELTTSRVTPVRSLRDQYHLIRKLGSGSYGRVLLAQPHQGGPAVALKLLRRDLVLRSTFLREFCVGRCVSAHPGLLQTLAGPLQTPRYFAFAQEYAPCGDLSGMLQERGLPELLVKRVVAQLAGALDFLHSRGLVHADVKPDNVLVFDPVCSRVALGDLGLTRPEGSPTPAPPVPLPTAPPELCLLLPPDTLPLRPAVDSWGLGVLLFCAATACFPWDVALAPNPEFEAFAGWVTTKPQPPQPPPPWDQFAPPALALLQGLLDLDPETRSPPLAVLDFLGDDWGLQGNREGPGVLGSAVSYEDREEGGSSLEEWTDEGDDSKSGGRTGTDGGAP

MARK1 = MARK1 (Homo sapiens, UniProt Q9P0L2)
Chain of MARK1 (Q9P0L2 whole entry): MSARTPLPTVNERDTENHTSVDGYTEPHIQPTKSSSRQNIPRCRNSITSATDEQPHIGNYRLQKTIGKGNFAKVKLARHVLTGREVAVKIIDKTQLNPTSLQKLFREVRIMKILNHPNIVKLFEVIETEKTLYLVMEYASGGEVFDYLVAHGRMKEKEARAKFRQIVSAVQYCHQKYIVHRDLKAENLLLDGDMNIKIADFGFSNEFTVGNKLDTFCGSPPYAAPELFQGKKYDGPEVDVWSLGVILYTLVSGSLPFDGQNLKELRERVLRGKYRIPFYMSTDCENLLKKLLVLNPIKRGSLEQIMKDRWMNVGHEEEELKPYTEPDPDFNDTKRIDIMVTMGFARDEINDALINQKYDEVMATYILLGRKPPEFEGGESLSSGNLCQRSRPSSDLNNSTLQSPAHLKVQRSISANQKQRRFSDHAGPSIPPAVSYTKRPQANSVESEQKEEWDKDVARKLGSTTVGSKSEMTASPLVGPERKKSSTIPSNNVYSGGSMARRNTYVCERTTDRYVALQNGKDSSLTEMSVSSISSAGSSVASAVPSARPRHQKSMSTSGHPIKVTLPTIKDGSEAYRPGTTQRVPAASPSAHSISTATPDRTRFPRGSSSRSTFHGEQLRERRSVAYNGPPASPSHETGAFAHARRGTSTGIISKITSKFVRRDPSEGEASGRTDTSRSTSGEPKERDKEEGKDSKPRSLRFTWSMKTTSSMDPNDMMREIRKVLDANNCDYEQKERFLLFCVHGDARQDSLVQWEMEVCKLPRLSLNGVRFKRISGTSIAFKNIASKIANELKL

TYRO3 = target: T2, TYRO3 (Homo sapiens, UniProt Q06418)
T2 sequence (Q06418 1-890): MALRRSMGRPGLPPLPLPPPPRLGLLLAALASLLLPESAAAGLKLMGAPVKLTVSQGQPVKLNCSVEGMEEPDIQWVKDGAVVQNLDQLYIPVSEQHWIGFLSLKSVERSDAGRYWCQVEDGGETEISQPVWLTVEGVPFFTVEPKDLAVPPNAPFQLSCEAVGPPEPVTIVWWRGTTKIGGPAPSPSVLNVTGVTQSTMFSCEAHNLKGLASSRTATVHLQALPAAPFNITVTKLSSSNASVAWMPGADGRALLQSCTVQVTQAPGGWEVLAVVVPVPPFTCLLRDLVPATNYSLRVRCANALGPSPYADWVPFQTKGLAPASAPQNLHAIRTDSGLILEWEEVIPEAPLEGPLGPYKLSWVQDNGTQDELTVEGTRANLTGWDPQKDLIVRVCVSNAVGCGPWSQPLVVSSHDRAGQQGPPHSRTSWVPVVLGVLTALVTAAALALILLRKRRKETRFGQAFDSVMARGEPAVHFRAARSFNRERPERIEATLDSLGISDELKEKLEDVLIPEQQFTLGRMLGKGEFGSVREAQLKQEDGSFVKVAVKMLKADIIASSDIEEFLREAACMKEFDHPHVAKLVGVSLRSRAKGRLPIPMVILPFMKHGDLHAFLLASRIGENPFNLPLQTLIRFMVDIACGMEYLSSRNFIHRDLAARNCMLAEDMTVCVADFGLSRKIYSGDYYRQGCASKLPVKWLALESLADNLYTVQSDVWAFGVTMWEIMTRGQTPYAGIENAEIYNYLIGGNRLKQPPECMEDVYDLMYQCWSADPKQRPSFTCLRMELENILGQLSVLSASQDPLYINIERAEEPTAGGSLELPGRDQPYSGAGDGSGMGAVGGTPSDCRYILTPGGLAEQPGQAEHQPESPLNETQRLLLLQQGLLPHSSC

PRKG2 = target: T3, PRKG2 (Homo sapiens, UniProt Q13237)
T3 sequence (Q13237 1-762): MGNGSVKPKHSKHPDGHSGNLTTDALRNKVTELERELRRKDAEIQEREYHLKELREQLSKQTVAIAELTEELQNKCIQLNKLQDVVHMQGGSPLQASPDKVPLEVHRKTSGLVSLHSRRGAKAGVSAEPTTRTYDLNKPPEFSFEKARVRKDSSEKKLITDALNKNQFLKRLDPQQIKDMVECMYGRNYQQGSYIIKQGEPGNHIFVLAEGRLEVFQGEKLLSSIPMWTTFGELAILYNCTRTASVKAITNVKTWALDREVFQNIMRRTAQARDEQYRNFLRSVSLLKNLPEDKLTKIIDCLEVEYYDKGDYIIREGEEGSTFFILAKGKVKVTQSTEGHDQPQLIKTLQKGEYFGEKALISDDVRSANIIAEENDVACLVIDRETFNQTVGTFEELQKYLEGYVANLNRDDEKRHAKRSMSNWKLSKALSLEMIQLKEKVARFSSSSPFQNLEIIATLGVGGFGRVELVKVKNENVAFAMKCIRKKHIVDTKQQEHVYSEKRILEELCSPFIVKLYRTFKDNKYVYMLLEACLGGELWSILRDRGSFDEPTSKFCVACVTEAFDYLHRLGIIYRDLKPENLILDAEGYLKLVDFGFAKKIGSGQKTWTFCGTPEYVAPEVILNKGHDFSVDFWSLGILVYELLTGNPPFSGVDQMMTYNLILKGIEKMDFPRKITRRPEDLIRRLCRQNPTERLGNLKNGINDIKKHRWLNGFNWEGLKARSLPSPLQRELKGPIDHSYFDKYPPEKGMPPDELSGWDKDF

[1] = read-out: Talazoparib (BMN 673) / %Ctrl @ 10000nM
[2] = read-out: Olaparib / %Ctrl @ 10000nM
[3] = read-out: Niraparib (MK-4827) / %Ctrl @ 10000nM
[4] = read-out: Rucaparib / %Ctrl @ 10000nM, binding competition, % of control

Chain of ACVRL1 (P37023 whole entry): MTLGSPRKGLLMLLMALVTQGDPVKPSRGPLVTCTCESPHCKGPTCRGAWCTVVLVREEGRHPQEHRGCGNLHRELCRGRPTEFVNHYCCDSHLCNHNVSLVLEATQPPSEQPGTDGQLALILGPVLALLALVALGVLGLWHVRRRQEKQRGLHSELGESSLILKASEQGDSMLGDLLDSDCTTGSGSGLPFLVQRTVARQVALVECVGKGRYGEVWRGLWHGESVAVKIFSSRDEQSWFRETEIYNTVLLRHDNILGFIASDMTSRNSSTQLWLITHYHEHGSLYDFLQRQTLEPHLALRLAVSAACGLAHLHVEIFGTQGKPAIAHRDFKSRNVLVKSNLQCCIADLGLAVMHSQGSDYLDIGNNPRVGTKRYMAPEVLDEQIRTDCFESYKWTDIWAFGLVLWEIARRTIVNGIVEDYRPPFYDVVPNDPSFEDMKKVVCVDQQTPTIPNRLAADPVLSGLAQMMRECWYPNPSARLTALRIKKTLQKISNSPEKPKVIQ
Chain of FGFR3 (P22607 whole entry): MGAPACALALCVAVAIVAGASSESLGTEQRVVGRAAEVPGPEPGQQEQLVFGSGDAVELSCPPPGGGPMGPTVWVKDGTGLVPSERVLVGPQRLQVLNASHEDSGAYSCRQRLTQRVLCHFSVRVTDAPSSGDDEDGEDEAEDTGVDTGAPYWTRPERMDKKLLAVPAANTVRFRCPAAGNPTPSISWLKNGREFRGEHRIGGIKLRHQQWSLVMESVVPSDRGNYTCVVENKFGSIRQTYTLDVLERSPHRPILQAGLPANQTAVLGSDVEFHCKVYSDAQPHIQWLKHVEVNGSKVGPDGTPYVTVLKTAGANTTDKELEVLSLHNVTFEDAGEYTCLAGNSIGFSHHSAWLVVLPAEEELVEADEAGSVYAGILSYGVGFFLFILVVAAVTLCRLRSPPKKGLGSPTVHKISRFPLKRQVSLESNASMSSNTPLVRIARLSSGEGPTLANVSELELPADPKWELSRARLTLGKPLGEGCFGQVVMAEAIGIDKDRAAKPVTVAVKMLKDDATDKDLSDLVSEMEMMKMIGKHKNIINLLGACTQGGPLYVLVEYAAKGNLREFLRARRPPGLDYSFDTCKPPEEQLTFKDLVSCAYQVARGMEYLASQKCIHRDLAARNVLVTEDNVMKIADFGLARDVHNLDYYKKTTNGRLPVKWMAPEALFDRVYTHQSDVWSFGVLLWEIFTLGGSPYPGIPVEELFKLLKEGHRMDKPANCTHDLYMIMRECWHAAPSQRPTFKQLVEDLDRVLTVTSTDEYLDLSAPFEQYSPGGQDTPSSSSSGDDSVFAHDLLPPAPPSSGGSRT

Cn1ncnc1[C@H]1c2n[nH]c(=O)c3cc(F)cc(c23)N[C@@H]1c1ccc(F)cc1 [Talazoparib]
percent of control binding at 10 µM (ACVRL1; [1]): 84%
percent of control binding at 10 µM (FGFR3; [1]): 100%
percent of control binding at 10 µM (KIT(V559D,T670I); [1]): 100%
percent of control binding at 10 µM (WEE2; [1]): 100%
percent of control binding at 10 µM (SgK110; [1]): 100%
percent of control binding at 10 µM (MARK1; [1]): 89%
percent of control binding at 10 µM (TYRO3; [1]): 100%
percent of control binding at 10 µM (PRKG2; [1]): 100%

O=C(c1cc(Cc2n[nH]c(=O)c3ccccc23)ccc1F)N1CCN(C(=O)C2CC2)CC1 [Olaparib]
percent of control binding at 10 µM (ACVRL1; [2]): 97%
percent of control binding at 10 µM (FGFR3; [2]): 100%
percent of control binding at 10 µM (KIT(V559D,T670I); [2]): 92%
percent of control binding at 10 µM (WEE2; [2]): 100%
percent of control binding at 10 µM (SgK110; [2]): 63%
percent of control binding at 10 µM (MARK1; [2]): 93%
percent of control binding at 10 µM (TYRO3; [2]): 100%
percent of control binding at 10 µM (PRKG2; [2]): 85%

NC(=O)c1cccc2cn(-c3ccc([C@@H]4CCCNC4)cc3)nc12 [Niraparib]
percent of control binding at 10 µM (ACVRL1; [3]): 98%
percent of control binding at 10 µM (FGFR3; [3]): 94%
percent of control binding at 10 µM (KIT(V559D,T670I); [3]): 97%
percent of control binding at 10 µM (WEE2; [3]): 100%
percent of control binding at 10 µM (SgK110; [3]): 84%
percent of control binding at 10 µM (MARK1; [3]): 93%
percent of control binding at 10 µM (TYRO3; [3]): 89%
percent of control binding at 10 µM (PRKG2; [3]): 97%

CNCc1ccc(-c2[nH]c3cc(F)cc4c3c2CCNC4=O)cc1 [Rucaparib]
percent of control binding at 10 µM (ACVRL1; [4]): 100%
percent of control binding at 10 µM (FGFR3; [4]): 99%
percent of control binding at 10 µM (KIT(V559D,T670I); [4]): 91%
percent of control binding at 10 µM (WEE2; [4]): 100%
percent of control binding at 10 µM (SgK110; [4]): 63%
percent of control binding at 10 µM (MARK1; [4]): 85%
percent of control binding at 10 µM (TYRO3; [4]): 100%
percent of control binding at 10 µM (PRKG2; [4]): 60%
